Test results reported in ChEMBL document CHEMBL4184235, “Design, synthesis, SAR and biological investigation of 3-(carboxymethyl)rhodanine and aminothiazole inhibitors of Mycobacterium tuberculosis Zmp1” (Bioorg Med Chem Lett, 2018).
In brackets after ≈: the same amount, converted by molar mass.

Assays:
[1] = Inhibition of N-terminal enterokinase-cleavable His-tagged full-length Mycobacterium tuberculosis Zmp1 expressed in Escherichia coli BL21(DE3) assessed as reduction in enzyme activity at 50 uM using MCA-Pro-Leu-Gly-Leu-Dpa-Ala-Arg-NH2 substrate by fluorometry
[2] = tested on: Mycobacterium tuberculosis; experiment: Inhibition of N-terminal enterokinase-cleavable His-tagged full-length Mycobacterium tuberculosis Zmp1 expressed in Escherichia coli BL21(DE3) assessed as residual enzyme activity at 50 uM using MCA-Pro-Leu-Gly-Leu-Dpa-Ala-Arg-NH2 substrate by fluorometry
[3] = Cytotoxicity against African green monkey Vero cells assessed as reduction in cell viability incubated for 72 hrs by MTT assay; assay type: cell-based; conditions: chlorocebus sabaeus
[4] = tested on: Mycobacterium tuberculosis; experiment: Antimycobacterial activity against Mycobacterium tuberculosis infected in human THP1 cells assessed as inhibition of microbial growth by measuring colony forming units at 10 ug/ml incubated for 72 hrs followed by plating on Middlebrook 7H11 medium for 21 days; assay type: functional; conditions: THP-1, read-out: GI
[5] = Cytotoxicity against human THP1 cells assessed as reduction in cell viability incubated for 72 hrs by MTT assay; assay type: cell-based; conditions: THP-1 cells
[6] = tested on: Mycobacterium tuberculosis; experiment: Antimycobacterial activity against Mycobacterium tuberculosis H37Ra ATCC […] assessed as reduction in bacterial growth incubated for 7 days by resazurin microtiter assay; assay type: functional; conditions: 168 h
[7] = tested on: Mycobacterium tuberculosis; experiment: Antimycobacterial activity against Mycobacterium tuberculosis infected in human THP1 cells assessed as inhibition of microbial growth by measuring colony forming units at 100 ug/ml incubated for 72 hrs followed by plating on Middlebrook 7H11 medium for 21 days; assay type: functional; conditions: THP-1, read-out: GI

SMILES | IC50 [1] [µM] | Activity [2] [%] | also measured
C[C@H](C(=O)O)N1C(=O)/C(=C/c2ccc(C(=O)O)cc2)SC1=S | 2.9 | 7.2 | –
O=C(O)CN1C(=O)/C(=C/c2cccc(C(=O)O)c2)SC1=S | 15.7 | 11.2 | –
O=C(O)[C@@H](Cc1ccccc1)N1C(=O)/C(=C/c2cccs2)SC1=S | 11.4 | 10.4 | –
COc1cccc(Cc2csc(N[C@H](Cc3ccccc3)C(=O)O)n2)c1 | – | 100 | –
N#Cc1ccc(/C=C2\SC(=S)N([C@H](Cc3ccccc3)C(=O)O)C2=O)cc1 | 6.6 | 7.1 | –
O=C(O)[C@@H](Cc1ccccc1)Nc1nc(-c2ccc([N+](=O)[O-])cc2)cs1 | 35.7 | 36.3 | –
COC(=O)c1cccc(/C=C2\SC(=S)N([C@H](Cc3ccccc3)C(=O)O)C2=O)c1 | 12.5 | 13.2 | CC50 at 72 h [3]: 32.5 µg/mL (≈ 76 µM); inhibition of growth at 10 µg/mL [4]: 0.5%; CC50 at 72 h [5]: 21.9 µg/mL (≈ 51.2 µM); MIC [6]: 64 µg/mL (≈ 150 µM)
O=C(O)[C@@H](Cc1ccccc1)N1C(=O)/C(=C/c2ccncc2)SC1=S | 26.9 | 19.1 | –
COc1cccc(-c2csc(N[C@H](Cc3ccccc3)C(=O)O)n2)c1 | – | 91.9 | –
O=C(O)c1ccc(Cc2csc(N[C@H](Cc3ccccc3)C(=O)O)n2)cc1 | – | 100 | –
N#Cc1ccc(-c2csc(N[C@H](Cc3ccccc3)C(=O)O)n2)cc1 | 41.3 | 35 | –
O=C(O)c1cccc(-c2csc(N[C@H](Cc3ccccc3)C(=O)O)n2)c1 | – | 100 | –
O=C(OCCc1ccccc1)c1ccc(/C=C2\SC(=S)N([C@H](Cc3ccccc3)C(=O)O)C2=O)cc1 | – | 58.7 | –
C[C@H](C(=O)O)N1C(=O)/C(=C/c2cccc(C(=O)O)c2)SC1=S | 1.3 | 12.7 | –
COc1cccc(/C=C2\SC(=S)N([C@H](Cc3ccccc3)C(=O)O)C2=O)c1 | 18.4 | 10 | –
O=C(O)c1ccc(-c2csc(N[C@H](Cc3ccccc3)C(=O)O)n2)cc1 | – | 100 | –
O=C(O)c1ccc(/C=C2\SC(=S)N([C@@H](Cc3ccccc3)C(=O)O)C2=O)cc1 | – | – | inhibition of growth at 100 µg/mL [7]: 58.3%; CC50 at 72 h [3]: > 125 µg/mL; inhibition of growth at 10 µg/mL [4]: 57.4%; CC50 at 72 h [5]: 115 µg/mL (≈ 278 µM); MIC [6]: > 64 µg/mL
COc1ccc(/C=C2\SC(=S)N([C@H](Cc3ccccc3)C(=O)O)C2=O)cc1 | 20.4 | 12.3 | –
COC(=O)c1cccc(Cc2csc(N[C@H](Cc3ccccc3)C(=O)O)n2)c1 | – | 100 | –
COc1ccc(-c2csc(N[C@H](Cc3ccccc3)C(=O)O)n2)cc1 | – | 100 | –
O=C(O)CN1C(=O)/C(=C/c2ccc(C(=O)O)cc2)SC1=S | 3.9 | 10.3 | –
O=C(O)c1ccc(/C=C2\SC(=S)N([C@H](Cc3ccccc3)C(=O)O)C2=O)cc1 | 0.87 | – | inhibition of growth at 100 µg/mL [7]: 60%; CC50 at 72 h [3]: > 125 µg/mL; inhibition of growth at 10 µg/mL [4]: 0.1%; CC50 at 72 h [5]: > 125 µg/mL; MIC [6]: > 64 µg/mL
COC(=O)c1ccc(Cc2csc(N[C@H](Cc3ccccc3)C(=O)O)n2)cc1 | – | 61 | –
CC(C)COC(=O)c1ccc(/C=C2\SC(=S)N([C@H](Cc3ccccc3)C(=O)O)C2=O)cc1 | 43.9 | 28.1 | –
COc1cccc(/C=C2\SC(=S)N(CC(=O)O)C2=O)c1 | 28.2 | 18.9 | –
O=C(OCc1ccccc1)c1cccc(/C=C2\SC(=S)N([C@H](Cc3ccccc3)C(=O)O)C2=O)c1 | 24 | 13.5 | CC50 at 72 h [3]: 23.2 µg/mL (≈ 46.1 µM); inhibition of growth at 10 µg/mL [4]: 53.8%; CC50 at 72 h [5]: 11.2 µg/mL (≈ 22.2 µM); MIC [6]: 64 µg/mL (≈ 127 µM)
O=C(O)[C@@H](Cc1ccccc1)Nc1nc(Cc2ccccc2)cs1 | – | 100 | –
O=C(O)c1cccc(/C=C2\SC(=S)N([C@H](Cc3ccccc3)C(=O)O)C2=O)c1 | 9.3 | 13.4 | inhibition of growth at 100 µg/mL [7]: 54.5%; CC50 at 72 h [3]: > 125 µg/mL; inhibition of growth at 10 µg/mL [4]: 23.4%; CC50 at 72 h [5]: 102 µg/mL (≈ 246 µM); MIC [6]: > 64 µg/mL
O=C(O)c1cccc(Cc2csc(N[C@H](Cc3ccccc3)C(=O)O)n2)c1 | – | 100 | –
COc1cccc(/C=C2\SC(=S)N([C@H](C)C(=O)O)C2=O)c1 | 23.4 | 12.6 | –
